From patent US20250135038A1, “COMPOSITIONS AND METHODS FOR IMPROVED TREATMENT OF POMPE DISEASE” (Astellas Gene Therapies, Inc., priority 2022, published 2025)

Test system: liver transaminases (ALT, AST) and bilirubin
Assay: Longitudinal monitoring of liver transaminases (ALT, AST) and bilirubin, relative to prednisolone prophylaxis
Format: in vivo, human
Description: Abbreviations: L, liter; U/L, units per liter; […], upper limit of normal.
Liver transaminases and bilirubin were also monitored over time for patients 2002, 2003, and 2009 (FIG. 11-13).

| Structure (SMILES) | Prophylaxis of liver syndromes associated with GAA gene therapy (combination of the viral vector and an anti-transaminitis agent (e.g., prednisolone), conclusion of Example 1) | Response of the rise in transaminases to re-initiation of corticosteroid treatment (participant 2001, after AAV vector 3×10^13 vg/kg) | Response of transaminitis to steroid schedule (participant 2003, after AAV vector 6×10^13 vg/kg) | Response of transaminitis to steroid schedule (participant 2009, after AAV vector 6×10^13 vg/kg) | Liver function parameters (Patient 2002 (3×10^13 vg/kg), reduced dose of prophylactic prednisone, throughout steroid tapering and >1 year follow up) |
| --- | --- | --- | --- | --- | --- |
| C[C@]12C=CC(=O)C=C1CC[C@@H]1[C@@H]2[C@@H](O)C[C@@]2(C)[C@H]1CC[C@]2(O)C(=O)CO [prednisolone] | can serve as a prophylactic treatment for liver syndromes | responded well | responsive to a slowing in the steroid tapering schedule and a small increment in steroid dose | responsive to a slowing in the steroid tapering schedule |  |
| C[C@]12C=CC(=O)C=C1CC[C@@H]1[C@@H]2C(=O)C[C@@]2(C)[C@H]1CC[C@]2(O)C(=O)CO [prednisone] |  |  |  |  | remained within the normal range |
